Assay [1] concerns the target T1, SIK1 kinase (aa1-303, Thermo Fisher) (Homo sapiens, UniProt P57059).
T1 construct: SIK1 kinase (aa1-303, Thermo Fisher); purchased Thermo Fisher
Nature of the assay: Biochemical activities determination for SIK1 protein (TR-FRET). The conditions noted are these: 110 uM ATP, 0.5 μM STK1 substrate. As for the experimental part:
1. Biochemical Activities Determination for SIK1 Protein
(§1) Compounds were tested for inhibition of SIK1 kinase (aa1-303, Thermo Fisher) in assays based on the time-resolved fluorescence-resonance energy transfer (TR-FRET) methodology. The assays were carried out in 384-well low volume white plates in a reaction mixture containing SIK1 kinase, 110 uM ATP, 0.5 μM STK1 substrate and 0-10 μM compound in buffer containing 25 mM Tris, 0.01% Trition X-100, 0.5 mM EGTA, 5 mM MgCl2, 2.5 mM DTT, pH=7.5. The kinase was incubated with compounds for 60 minutes at room temperature and the reaction was initiated by the addition of ATP and STK1 substrate. After reaction at room temperature for 180 minutes, an equal volume of stop/detection solution was added according to the manufacture's instruction (CisBio Bioassays). The stop/detection solution contained STK Antibody-Cryptate and XL665-conjugated streptavidin (Cat: 62ST1PEC, Cisbio) in Detection Buffer (Cat: 62SDBRDF, Cisbio). Plates were sealed and incubated at room temperature for overnight, and the TR-FRET signals (ratio of fluorescence emission at 665 nm over emission at 620 nm with excitation at 337 nm wavelength) were recorded on a PHERAstar FS plate reader (BMG Labtech). Phosphorylation of STK1 substrate led to the binding of STK Antibody-Cryptate to the biotinylated SIK1 substrate, which places fluorescent donor (Eu^3+ crypate) in close proximity to the accepter (Streptavidin-XL665), thus resulting in a high degree of fluorescence resonance energy transfer from the donor fluorophore (at 620 nm) to the acceptor fluorophore (at 665 nm). […] The IC50 for each compound was derived from fitting the data to the four-parameter logistic equation by Dotmatics.
Background: TR-FRET usually uses a lanthanide donor and a delayed reading to cut background.

In assay [2] the target is T2, SIK2 kinase (full length, Thermo Fisher) (Homo sapiens, UniProt Q9H0K1).
T2 construct: SIK2 kinase (full length, Thermo Fisher); purchased Thermo Fisher
Nature of the assay: Biochemical activities determination for SIK2 protein (TR-FRET). The conditions noted are these: 80 uM ATP, 0.5 μM substrate. As for the experimental part:
2. Biochemical Activities Determination for SIK2 Protein
as §1, with “of SIK2” for “of SIK1”, “kinase (full length,” for “kinase (aa1-303,”, “containing SIK2” for “containing SIK1”, “kinase, 80” for “kinase, 110”, “μM […]” for “μM STK1”, “biotinylated STK1” for “biotinylated SIK1”

Assay [3] deals with T3, SIK3 kinase (aa59-365, Thermo Fisher) (Homo sapiens, UniProt Q9Y2K2).
T3 construct: SIK3 kinase (aa59-365, Thermo Fisher); purchased Thermo Fisher
Nature of the assay: Biochemical activities determination for SIK3 protein (TR-FRET). The conditions noted are these: 125 uM ATP, 0.5 μM STK1 substrate. The protocol:
3. Biochemical Activities Determination for SIK3 Protein
Compounds were tested for inhibition of SIK3 kinase (aa59-365, Thermo Fisher) in assays based on the time-resolved fluorescence-resonance energy transfer (TR-FRET) methodology. The assays were carried out in 384-well low volume white plates in a reaction mixture containing SIK3 kinase, 125 uM ATP, 0.5 μM STK1 substrate and 0-10 μM compound in buffer containing 25 mM Tris, 0.01% Trition X-100, 0.5 mM EGTA, 5 mM MgCl2, 2.5 mM DTT, PH=7.5. The kinase was incubated with compound for 60 minutes at room temperature and the reaction was initiated by the addition of ATP and STK1 substrate. After reaction at room temperature for 180 minutes, an equal volume of stop/detection solution was added according to the manufacture's instruction (CisBio Bioassays). The stop/detection solution contained STK Antibody-Cryptate and XL665-conjugated streptavidin (Cat: 62ST1PEC, Cisbio) in Detection Buffer (Cat: 62SDBRDF, Cisbio). Plates were sealed and incubated at room temperature for overnight, and the TR-FRET signals (ratio of fluorescence emission at 665 nm over emission at 620 nm with excitation at 337 nm wavelength) were recorded on a PHERAstar FS plate reader (BMG Labtech). Phosphorylation of STK1 substrate led to the binding of STK Antibody-Cryptate to the biotinylated STK1 substrate, which places fluorescent donor (Eu^3+ crypate) in close proximity to the accepter (Streptavidin-XL665), thus resulting in a high degree of fluorescence resonance energy transfer from the donor fluorophore (at 620 nm) to the acceptor fluorophore (at 665 nm). […] The IC50 for each compound was derived from fitting the data to the four-parameter logistic equation by Dotmatics.

T1 sequence (P57059 1-303): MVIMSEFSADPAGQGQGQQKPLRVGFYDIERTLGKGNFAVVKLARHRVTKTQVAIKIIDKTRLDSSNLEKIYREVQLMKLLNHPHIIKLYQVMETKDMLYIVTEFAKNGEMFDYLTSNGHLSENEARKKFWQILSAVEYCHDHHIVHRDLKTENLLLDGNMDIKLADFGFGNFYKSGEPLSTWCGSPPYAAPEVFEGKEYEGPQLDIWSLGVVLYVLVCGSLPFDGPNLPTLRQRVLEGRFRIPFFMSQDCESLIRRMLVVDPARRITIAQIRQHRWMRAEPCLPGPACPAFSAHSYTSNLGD
T3 sequence (Q9Y2K2 59-365): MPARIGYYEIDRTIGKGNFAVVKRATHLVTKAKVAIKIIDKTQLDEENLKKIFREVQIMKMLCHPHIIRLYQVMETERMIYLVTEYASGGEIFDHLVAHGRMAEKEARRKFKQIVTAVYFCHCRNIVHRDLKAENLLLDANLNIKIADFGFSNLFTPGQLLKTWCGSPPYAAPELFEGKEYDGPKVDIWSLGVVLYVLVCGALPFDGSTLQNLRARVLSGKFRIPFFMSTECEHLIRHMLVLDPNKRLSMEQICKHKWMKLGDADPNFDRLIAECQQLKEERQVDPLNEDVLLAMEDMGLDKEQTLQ
T2 sequence (Q9H0K1 whole entry): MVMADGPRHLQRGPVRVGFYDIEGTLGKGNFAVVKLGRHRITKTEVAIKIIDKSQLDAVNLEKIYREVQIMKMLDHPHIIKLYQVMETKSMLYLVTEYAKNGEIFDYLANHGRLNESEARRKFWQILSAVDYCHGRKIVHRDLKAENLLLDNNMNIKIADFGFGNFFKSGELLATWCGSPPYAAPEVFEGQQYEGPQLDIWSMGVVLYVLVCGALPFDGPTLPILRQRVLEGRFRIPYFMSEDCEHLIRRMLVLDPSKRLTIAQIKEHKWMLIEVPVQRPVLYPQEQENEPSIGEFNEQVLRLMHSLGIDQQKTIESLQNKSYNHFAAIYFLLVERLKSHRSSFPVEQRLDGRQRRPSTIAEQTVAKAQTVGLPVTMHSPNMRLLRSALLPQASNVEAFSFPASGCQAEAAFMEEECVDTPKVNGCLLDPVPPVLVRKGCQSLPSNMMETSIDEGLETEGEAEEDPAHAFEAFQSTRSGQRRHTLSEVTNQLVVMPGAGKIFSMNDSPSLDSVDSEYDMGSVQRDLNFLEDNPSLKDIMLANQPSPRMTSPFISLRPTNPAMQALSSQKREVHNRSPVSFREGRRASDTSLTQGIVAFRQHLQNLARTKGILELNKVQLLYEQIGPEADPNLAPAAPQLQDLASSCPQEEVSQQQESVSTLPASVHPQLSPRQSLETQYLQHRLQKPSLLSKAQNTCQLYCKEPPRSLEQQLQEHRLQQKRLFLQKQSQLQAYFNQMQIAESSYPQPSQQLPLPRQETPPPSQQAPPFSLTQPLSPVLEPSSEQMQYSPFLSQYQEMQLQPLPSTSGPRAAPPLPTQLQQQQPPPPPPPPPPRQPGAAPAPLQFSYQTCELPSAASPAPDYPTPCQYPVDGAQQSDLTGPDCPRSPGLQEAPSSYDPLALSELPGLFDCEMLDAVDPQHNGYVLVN

Regarding `COc1cc(-c2coc3cc(-c4cnn(C)c4)ccc23)cc2c1C(=O)N(C1CC1)CC2` [Compound 27, 2-cyclopropyl-8-methoxy-6-(6-(1-methyl-1H-pyrazol-4-yl)benzofuran-3-yl)-3,4-dihydroisoquinolin-1 (2H)-one], the IC50 – broadly, the point on the concentration scale where inhibition reaches its midpoint – in assay [1] came to 1130 nM; in assay [2], 34 nM; in assay [3] it was 72 nM.
In the case of `COc1cc(-c2coc3cc(-c4cnn(C)c4)ccc23)cc2c1C(=O)N(CC(F)(F)F)CCO2` [Compound 28, 6-methoxy-8-(6-(1-methyl-1H-pyrazol-4-yl)benzofuran-3-yl)-4-(2,2,2-trifluoroethyl)-3,4-dihydrobenzo[f][1,4]oxazepin-5 (2H)-one], the IC50 was 3940 nM in assay [1], 140 nM in assay [2] and 281 nM in assay [3].
Take `COc1cc(-c2coc3cc(-c4cnn(C)c4)ccc23)cc2c1C(=O)N(CC(F)(F)F)[C@@H](C)C2` [Compound 29A, (S)-8-methoxy-3-methyl-6-(6-(1-methyl-1H-pyrazol-4-yl)benzofuran-3-yl)-2-(2,2,2-trifluoroethyl)-3,4-dihydroisoquinolin-1 (2H)-one]: the values for the 50% inhibitory concentration (IC50) in assay [1], in assay [2] and in assay [3] were 216 nM, 15 nM and 42 nM, respectively.
Regarding `COc1cc(-c2coc3cc(-c4cnn(C)c4)ccc23)cc2c1C(=O)N(CC(F)(F)F)[C@H](C)C2` [Compound 29B, (R)-8-methoxy-3-methyl-6-(6-(1-methyl-1H-pyrazol-4-yl)benzofuran-3-yl)-2-(2,2,2-trifluoroethyl)-3,4-dihydroisoquinolin-1 (2H)-one], the IC50 is 5980 nM in assay [1], 178 nM in assay [2] and 374 nM in assay [3].
In the case of `COc1cc(-c2coc3cc(-c4cnn(C)c4)ccc23)cc2c1C(=O)N(Cc1ccncc1)CC2` [Compound 30, 8-methoxy-6-(6-(1-methyl-1H-pyrazol-4-yl)benzofuran-3-yl)-2-(pyridin-4-ylmethyl)-3,4-dihydroisoquinolin-1 (2H)-one], the figures for the IC50 in assay [1], in assay [2] and in assay [3] were 2610 nM, 531 nM and 1110 nM, respectively.
For the compound `COc1cc(-c2coc3cc(-c4cnn(C)c4)ccc23)cc2c1C(=O)N(Cc1ccccc1)CC2` [Compound 31, 2-benzyl-8-methoxy-6-(6-(1-methyl-1H-pyrazol-4-yl)benzofuran-3-yl)-3,4-dihydroisoquinolin-1 (2H)-one], the IC50 in assay [1] was 5450 nM; in assay [2], 673 nM; in assay [3] it was 882 nM.
As for `Cn1cc(-c2ccc3c(-c4ccc(C#N)cc4)coc3c2)cn1` [Compound 32, 4-(6-(1-methyl-1H-pyrazol-4-yl)benzofuran-3-yl)benzonitrile], the IC50 was found to be 1880 nM in assay [1], 96 nM in assay [2] and 829 nM in assay [3].
For the compound `COc1cc(-c2coc3cc(-c4cnn(C)c4)ccc23)cc2c1C(=O)N(CC(F)(F)F)CC2(C)C` [Compound 33, 8-methoxy-4,4-dimethyl-6-(6-(1-methyl-1H-pyrazol-4-yl)benzofuran-3-yl)-2-(2,2,2-trifluoroethyl)-3,4-dihydroisoquinolin-1 (2H)-one], the figures for the IC50 in assay [1], in assay [2] and in assay [3] were 9100 nM, 82 nM and 156 nM, respectively.
On to `COc1cc(-c2coc3cc(-c4cnn(C)c4)ccc23)cc(OC)c1-c1nnc(C)o1` [Compound 34, 2-(2,6-dimethoxy-4-(6-(1-methyl-1H-pyrazol-4-yl)benzofuran-3-yl)phenyl)-5-methyl-1,3,4-oxadiazole], for which the IC50 in assay [1] worked out at 2680 nM; in assay [2], 239 nM; in assay [3], 420 nM.
In the same order, the values of `COc1cc(-c2coc3cc(-c4cnn(C)c4)ccc23)cc(OC)c1-c1nnc(C2CC2)o1` [Compound 35, 2-cyclopropyl-5-(2,6-dimethoxy-4-(6-(1-methyl-1H-pyrazol-4-yl)benzofuran-3-yl)phenyl)-1,3,4-oxadiazole] are 2080 nM, 132 nM and 255 nM.
Turning to `CCc1nnc(-c2c(OC)cc(-c3coc4cc(-c5cnn(C)c5)ccc34)cc2OC)o1` [Compound 36, 2-(2,6-dimethoxy-4-(6-(1-methyl-1H-pyrazol-4-yl)benzofuran-3-yl)phenyl)-5-ethyl-1,3,4-oxadiazole], the IC50 in assay [1] was 2090 nM; in assay [2] it was 144 nM; in assay [3] it was 305 nM.
With `COc1cc(-c2coc3cc(-c4cnn(C5CN(C)C5)c4)ccc23)cc(OC(F)F)c1C(=O)N[C@@H]1C[C@@H]1F` [Compound 37, 2-(difluoromethoxy)-N-((1R,2S)-2-fluorocyclopropyl)-6-methoxy-4-(6-(1-(1-methylazetidin-3-yl)-1H-pyrazol-4-yl)benzofuran-3-yl)benzamide], the IC50 in assay [1] stood at 25 nM; in assay [2], 1.4 nM; in assay [3], 4.2 nM.
As to `COc1cc(-c2coc3cc(-c4cnn(C5CCN(C)C5)c4)ccc23)cc(OC(F)F)c1C(=O)N[C@@H]1C[C@@H]1F` (stereo partly drawn) [Compound 38, 2-(difluoromethoxy)-N-((1R,2S)-2-fluorocyclopropyl)-6-methoxy-4-(6-(1-(1-methylpyrrolidin-3-yl)-1H-pyrazol-4-yl)benzofuran-3-yl)benzamide], the IC50 was 24 nM in assay [1], 1.7 nM in assay [2] and 3.9 nM in assay [3].
With `COc1cc(-c2coc3cc(-c4cnn(C5CCN(C)CC5)c4)ccc23)cc(OC(F)F)c1C(=O)N[C@@H]1C[C@@H]1F` [Compound 39, 2-(difluoromethoxy)-N-((1R,2S)-2-fluorocyclopropyl)-6-methoxy-4-(6-(1-(1-methylpiperidin-4-yl)-1H-pyrazol-4-yl)benzofuran-3-yl)benzamide], the IC50 in assay [1] is 25 nM; in assay [2] it was 1.7 nM; in assay [3] it was 4.1 nM.
Regarding `O=C1c2c(cc(-c3coc4cc(-c5cnn(C6CCOC6)c5)ccc34)cc2OC(F)F)CCN1CC(F)(F)F` (stereo not drawn) [Compound 40, 8-(difluoromethoxy)-6-(6-(1-(tetrahydrofuran-3-yl)-1H-pyrazol-4-yl)benzofuran-3-yl)-2-(2,2,2-trifluoroethyl)-3,4-dihydroisoquinolin-1 (2H)-one], the IC50 in assay [1] was found to be 537 nM; in assay [2], 14 nM; in assay [3], 31 nM.

These data come from patent US20260085053A1, “BENZOFURAN DERIVATIVES AS SIK INHIBITORS AND THE USE THEREOF” (BEONE MEDICINES I GMBH, priority 2023, published 2026).
